From PubChem BioAssay AID256 (DTP/NCI, 2004)
Several values for one entry are separate records, joined by “and”; a condition that tells them apart may be missing. Equal values may be shown once. Inconclusive results and toxic doses are left out. How the source made its calls: active means survival T/C of 150% or more; inactive means T/C below 125% in these data.

Tested on: CD2F1 mice, L1210 leukemia ip, survival T/C
Test: NCI In Vivo Anticancer Drug Screen. Data for tumor model L1210 Leukemia (intraperitoneal) in CD2F1 (CDF1) mice
Details: higher = longer survival
Outline: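 Antitumor effect is scored in animals hosting a serially transplanted tumor. Values compare compound-dosed animals against vehicle-only controls as a simple quotient.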

[1] = endpoint: mean survival time, dose: 100.0 mg/kg/injection, schedule: Q01DX001 (ip), vehicle: saline
[2] = endpoint: mean survival time, dose: 200.0 mg/kg/injection, schedule: Q01DX001 (ip), vehicle: saline
[3] = endpoint: mean survival time, dose: 400.0 mg/kg/injection, schedule: Q01DX001 (ip), vehicle: saline
[4] = endpoint: mean survival time, dose: 100.0 mg/kg/injection, schedule: Q04DX003 (ip), vehicle: saline with Tween-80
[5] = endpoint: mean survival time, dose: 200.0 mg/kg/injection, schedule: Q04DX003 (ip), vehicle: saline with Tween-80
[6] = endpoint: mean survival time, dose: 400.0 mg/kg/injection, schedule: Q04DX003 (ip), vehicle: saline with Tween-80
[7] = endpoint: mean survival time, dose: 50.0 mg/kg/injection, schedule: Q01DX009 (ip), vehicle: Klucel (hydroxypropylcellulose) (HPC)
[8] = endpoint: mean survival time, dose: 100.0 mg/kg/injection, schedule: Q01DX009 (ip), vehicle: Klucel (hydroxypropylcellulose) (HPC)
[9] = endpoint: mean survival time, dose: 200.0 mg/kg/injection, schedule: Q01DX009 (ip), vehicle: Klucel (hydroxypropylcellulose) (HPC)
[10] = endpoint: mean survival time, dose: 100.0 mg/kg/injection, schedule: Q01DX009 (ip), vehicle: saline with Tween-80
[11] = endpoint: mean survival time, dose: 100.0 mg/kg/injection, schedule: Q04DX002 (ip), vehicle: saline with Tween-80
[12] = endpoint: mean survival time, dose: 200.0 mg/kg/injection, schedule: Q01DX009 (ip), vehicle: saline with Tween-80
[13] = endpoint: mean survival time, dose: 200.0 mg/kg/injection, schedule: Q04DX002 (ip), vehicle: saline with Tween-80
[14] = endpoint: mean survival time, dose: 400.0 mg/kg/injection, schedule: Q01DX009 (ip), vehicle: saline with Tween-80
[15] = endpoint: mean survival time, dose: 400.0 mg/kg/injection, schedule: Q04DX002 (ip), vehicle: saline with Tween-80
[16] = endpoint: mean survival time, dose: 100.0 mg/kg/injection, schedule: Q04DX003 (ip), vehicle: saline
[17] = endpoint: mean survival time, dose: 200.0 mg/kg/injection, schedule: Q04DX003 (ip), vehicle: saline
[18] = endpoint: mean survival time, dose: 50.0 mg/kg/injection, schedule: Q01DX009 (ip), vehicle: saline
[19] = endpoint: mean survival time, dose: 100.0 mg/kg/injection, schedule: Q01DX009 (ip), vehicle: saline
[20] = endpoint: mean survival time, dose: 200.0 mg/kg/injection, schedule: Q01DX009 (ip), vehicle: saline
[21] = endpoint: mean survival time, dose: 100.0 mg/kg/injection, schedule: Q01DX001 (ip), vehicle: saline with Tween-80
[22] = endpoint: mean survival time, dose: 200.0 mg/kg/injection, schedule: Q01DX001 (ip), vehicle: saline with Tween-80
[23] = endpoint: mean survival time, dose: 400.0 mg/kg/injection, schedule: Q01DX001 (ip), vehicle: saline with Tween-80

Measured: T/C

O=c1cc2c(=O)oc3cc(O)c(O)oc3c2c(O)c1O
inactive: [1] 101 % of control | [2] 98 % of control | [3] 98 % of control

CC(=O)C(=O)C(C)=O
inactive: [4] 94 % of control | [5] 91 % of control | [6] 105 % of control

Cc1cc(Br)cc(Br)c1OCC(=O)O
inactive: [7] 96 % of control | [8] 93 % of control | [9] 96 % of control

CCN(CC)c1ncnc2nncnc12
inactive: endpoint: mean survival time, dose: 100.0 mg/kg/injection, schedule: Q01DX001 (ip), vehicle: carboxymethylcellulose (CMC) 101 % of control | endpoint: mean survival time, dose: 200.0 mg/kg/injection, schedule: Q01DX001 (ip), vehicle: carboxymethylcellulose (CMC) 96 % of control

CCOC(=O)c1ccc(NC(=O)OCc2ccco2)cc1
inactive: [10] 92 % of control and 98 % of control | [11] 88 % of control and 102 % of control | [4] 94 % of control | [12] 92 % of control and 100 % of control | [13] 86 % of control and 91 % of control | [5] 87 % of control | [14] 113 % of control and 96 % of control | [15] 87 % of control and 88 % of control | [6] 89 % of control

COc1ccc(NC(=O)CCl)c(OC)c1
inactive: [11] 108 % of control | [13] 97 % of control | [15] 97 % of control

CCCCC(CCCC)CS(=O)[O-].[C-]#[O+].[C-]#[O+].[Fe+6].[c-]1[c-][c-][cH-][c-]1
inactive: endpoint: mean survival time, dose: 25.0 mg/kg/injection, schedule: Q04DX002 (ip), vehicle: saline 102 % of control | endpoint: mean survival time, dose: 50.0 mg/kg/injection, schedule: Q04DX002 (ip), vehicle: saline 87 % of control | endpoint: mean survival time, dose: 100.0 mg/kg/injection, schedule: Q04DX002 (ip), vehicle: saline 106 % of control

COC(=O)C(CSCc1ccccc1)NC(=O)C(C)NC(=O)OCc1ccccc1 (centres undefined)
inactive: [10] 88 % of control | [12] 92 % of control | [14] 92 % of control

O=C1c2cccc(Cl)c2C(=O)c2c1cccc2[N+](=O)[O-]
inactive: endpoint: mean survival time, dose: 100.0 mg/kg/injection, schedule: Q04DX003 (ip), vehicle: Klucel (hydroxypropylcellulose) (HPC) 90 % of control | endpoint: mean survival time, dose: 200.0 mg/kg/injection, schedule: Q04DX003 (ip), vehicle: Klucel (hydroxypropylcellulose) (HPC) 102 % of control | endpoint: mean survival time, dose: 400.0 mg/kg/injection, schedule: Q04DX003 (ip), vehicle: Klucel (hydroxypropylcellulose) (HPC) 98 % of control

Cc1ccc(C2c3c(nc[nH]c3=O)OC2(C)C)cc1 (centres undefined)
inactive: [11] 114 % of control | [13] 106 % of control | [15] 111 % of control

Nc1n[nH]c2cc(=O)[nH]c(O)c12
inactive: endpoint: mean survival time, dose: 75.0 mg/kg/injection, schedule: Q01DX009 (ip), vehicle: saline 97 % of control | endpoint: mean survival time, dose: 75.0 mg/kg/injection, schedule: Q04DX003 (ip), vehicle: saline 106 % of control | endpoint: mean survival time, dose: 150.0 mg/kg/injection, schedule: Q01DX009 (ip), vehicle: saline 103 % of control | endpoint: mean survival time, dose: 150.0 mg/kg/injection, schedule: Q04DX003 (ip), vehicle: saline 102 % of control | endpoint: mean survival time, dose: 300.0 mg/kg/injection, schedule: Q01DX009 (ip), vehicle: saline 111 % of control | endpoint: mean survival time, dose: 300.0 mg/kg/injection, schedule: Q04DX003 (ip), vehicle: saline 106 % of control

COc1ccc(CNc2ccc([N+](=O)[O-])c3nonc23)cc1
inactive: [7] 94 % of control | [8] 86 % of control | [9] 94 % of control

CNC(=O)NC1C(CO)OC2OC(C)(C)OC21 (centres undefined)
inactive: [16] 96 % of control | [17] 94 % of control | endpoint: mean survival time, dose: 400.0 mg/kg/injection, schedule: Q04DX003 (ip), vehicle: saline 96 % of control

c1cncc(CCc2cccnc2)c1
inactive: [16] 100 % of control | [17] 100 % of control

COCCCN=C(N)N
inactive: [18] 102 % of control | [19] 105 % of control | [20] 96 % of control

CCCC(P(=O)(c1ccccc1)c1ccccc1)[P+](CC)(c1ccccc1)c1ccccc1 (centres undefined)
inactive: endpoint: mean survival time, dose: 6.25 mg/kg/injection, schedule: Q04DX002 (ip), vehicle: saline with Tween-80 100 % of control | endpoint: mean survival time, dose: 12.5 mg/kg/injection, schedule: Q04DX002 (ip), vehicle: saline with Tween-80 96 % of control | endpoint: mean survival time, dose: 25.0 mg/kg/injection, schedule: Q04DX002 (ip), vehicle: saline with Tween-80 92 % of control

CC(C)(CO)C(O)C(=O)NCCS(=O)(=O)c1ccc(F)cc1 (centres undefined)
inactive: [21] 105 % of control | [10] 89 % of control | [22] 95 % of control | [12] 89 % of control | [23] 100 % of control

N#Cc1nn(C2OC(COC(=O)c3ccccc3)C(OC(=O)c3ccccc3)C2OC(=O)c2ccccc2)c2nc[nH]c(=O)c12 (centres undefined)
inactive: endpoint: median survival time, dose: 12.5 mg/kg/injection, schedule: Q01DX005 (ip), vehicle: saline with Tween-80 107 % of control | endpoint: median survival time, dose: 25.0 mg/kg/injection, schedule: Q01DX005 (ip), vehicle: saline with Tween-80 103 % of control | endpoint: median survival time, dose: 50.0 mg/kg/injection, schedule: Q01DX005 (ip), vehicle: saline with Tween-80 97 % of control | endpoint: median survival time, dose: 100.0 mg/kg/injection, schedule: Q01DX005 (ip), vehicle: saline with Tween-80 97 % of control | endpoint: median survival time, dose: 200.0 mg/kg/injection, schedule: Q01DX005 (ip), vehicle: saline with Tween-80 119 % of control

O=C(CCCC(=O)c1ccccc1)OC1(c2ccccc2)CCCC(=O)O1 (centres undefined)
inactive: endpoint: mean survival time, dose: 50.0 mg/kg/injection, schedule: Q04DX002 (ip), vehicle: saline with Tween-80 98 % of control | [11] 98 % of control | [13] 94 % of control

CCCCCCN(CCCCCC)CC(O)c1ccncc1 (centres undefined)
inactive: endpoint: mean survival time, dose: 25.0 mg/kg/injection, schedule: Q04DX003 (ip), vehicle: saline sonified 100 % of control | endpoint: mean survival time, dose: 50.0 mg/kg/injection, schedule: Q04DX003 (ip), vehicle: saline sonified 92 % of control | endpoint: mean survival time, dose: 100.0 mg/kg/injection, schedule: Q04DX003 (ip), vehicle: saline sonified 100 % of control

COc1c(Cl)c(=O)oc2cc(C)c(Cl)c(C)c12
inactive: [21] 93 % of control | [22] 96 % of control | [23] 96 % of control

O=C1C=C(O)c2cc(Br)ccc2C1=O
inactive: [1] 102 % of control | [2] 98 % of control | [3] 98 % of control

CC(=O)Nc1ccc([N+](=O)[O-])c2ccccc12
inactive: endpoint: mean survival time, dose: 37.5 mg/kg/injection, schedule: Q04DX002 (ip), vehicle: saline with Tween-80 101 % of control | endpoint: mean survival time, dose: 75.0 mg/kg/injection, schedule: Q04DX002 (ip), vehicle: saline with Tween-80 101 % of control | endpoint: mean survival time, dose: 150.0 mg/kg/injection, schedule: Q04DX002 (ip), vehicle: saline with Tween-80 104 % of control

OCCCN1CCCCC1CO (centres undefined)
inactive: endpoint: mean survival time, dose: 12.5 mg/kg/injection, schedule: Q01DX009 (ip), vehicle: saline 101 % of control and 103 % of control | endpoint: mean survival time, dose: 25.0 mg/kg/injection, schedule: Q01DX009 (ip), vehicle: saline 98 % of control and 100 % of control | [18] 97 % of control and 98 % of control | [19] 97 % of control and 98 % of control | [20] 98 % of control | endpoint: mean survival time, dose: 400.0 mg/kg/injection, schedule: Q01DX009 (ip), vehicle: saline 91 % of control and 97 % of control | endpoint: median survival time, dose: 400.0 mg/kg/injection, schedule: Q01DX009 (ip), vehicle: saline 103 % of control | endpoint: median survival time, dose: 800.0 mg/kg/injection, schedule: Q01DX009 (ip), vehicle: saline 97 % of control

COc1cc([N+](=O)[O-])ccc1NC(=O)Oc1ccccc1F
inactive: [10] 109 % of control | [12] 109 % of control | [14] 108 % of control

O=S(O)c1ccccc1
inactive: [1] 92 % of control | [2] 94 % of control | [3] 110 % of control
